In one series the target is T1, human NPY Y5 receptor (Homo sapiens, UniProt Q15761).
T1 construct: expressed in transfected cells; membranes used
T1 sequence (Q15761 1-445): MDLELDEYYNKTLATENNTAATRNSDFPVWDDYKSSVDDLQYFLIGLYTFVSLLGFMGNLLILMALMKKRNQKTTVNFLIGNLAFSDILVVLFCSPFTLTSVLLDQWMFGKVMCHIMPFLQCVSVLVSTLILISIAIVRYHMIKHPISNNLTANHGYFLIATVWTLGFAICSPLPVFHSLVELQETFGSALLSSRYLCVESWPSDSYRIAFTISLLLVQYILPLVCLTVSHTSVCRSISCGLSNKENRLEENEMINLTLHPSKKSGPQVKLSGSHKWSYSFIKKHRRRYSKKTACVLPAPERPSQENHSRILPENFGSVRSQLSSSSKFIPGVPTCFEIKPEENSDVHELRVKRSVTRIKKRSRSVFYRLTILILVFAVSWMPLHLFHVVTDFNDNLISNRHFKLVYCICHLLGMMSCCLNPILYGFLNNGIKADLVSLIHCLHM
Nature of the series: Affinity for NPY Y5 receptor ([125I] peptide YY binding, CHO cell membranes). The conditions noted are these: [125I] peptide YY 60 pM, 25° C., 2 hours. An excerpt:
cDNA sequence encoding a human NPY Y5 receptor (WO96/16542) was cloned in a vector (pME18S, Takebe et al. Mol. Cell. Biol. 8, 8957). The obtained expression vector was transfected into CHO cells as a host by using Lipofect AMINE reagent (Trademark, Gico BRL Co., Ltd.) according to the instruction manual. The cells that stably express NPY Y5 receptor were obtained.
The membranes prepared from the CHO cells expressing NPY Y5 receptor, the compound of the present invention and 30,000 cpm [^125I] peptide YY (60 pM of final concentration: Amersham) were incubated in the assay buffer (20 mM HEPES-Hanks buffer containing 0.1% bovine serum albumin, pH 7.4) at 25° C. for 2 hours, and then the membrane was filtered from the mixture through a glassfilter (GF/C) presoaked with 1% polyethyleneimine. After washing with 50 mM Tris-HCl buffer (pH 7.4), radioactivity retained on the filters was quantified with a gamma counter. Nonspecific binding was defined as the amount of radioactivity bound to the membranes after incubation in the presence of 200 nM of peptide YY. The 50% inhibitory concentration of the test compound against the specific peptide YY binding (IC50 value) was calculated (Inui, A. et al. Endocrinology 131, 2090-2096 (1992)).

The nature of series [1]: Transportability through the blood-brain barrier (brain Kp) in mice. The settings on record: male, Jcl;C57BL/6J, mouse, brain (relative to plasma), intravenous administration, without cyclosporin A, read-out: brain Kp value (KpCont.), blood-brain partition coefficient. The series is classed as in vivo. Here is the method:
(§1) Transportability of the compounds of the present invention through the blood-brain barrier (blood-brain partition coefficient; Kp) in mice (Jcl;C57BL/6J mice, ♂, 7 weeks) was defined from the difference in concentration of the compounds between in plasma and in brain after intravenous administration of the compounds (0.5 mg/2 mIAg). The brain Kp value of Compound (1-72) (KpCont.) was 1.29 showing high transportability through the blood-brain barrier.

The target of series [2] is T2, P-gp (Mus musculus, UniProt P21447).
T2 construct: effectively excreted through P-gp from the brain to vessels; from tissue; host or cells: brain / blood-brain barrier of living Jcl;C57BL/6J mice
T2 sequence (P21447 whole entry): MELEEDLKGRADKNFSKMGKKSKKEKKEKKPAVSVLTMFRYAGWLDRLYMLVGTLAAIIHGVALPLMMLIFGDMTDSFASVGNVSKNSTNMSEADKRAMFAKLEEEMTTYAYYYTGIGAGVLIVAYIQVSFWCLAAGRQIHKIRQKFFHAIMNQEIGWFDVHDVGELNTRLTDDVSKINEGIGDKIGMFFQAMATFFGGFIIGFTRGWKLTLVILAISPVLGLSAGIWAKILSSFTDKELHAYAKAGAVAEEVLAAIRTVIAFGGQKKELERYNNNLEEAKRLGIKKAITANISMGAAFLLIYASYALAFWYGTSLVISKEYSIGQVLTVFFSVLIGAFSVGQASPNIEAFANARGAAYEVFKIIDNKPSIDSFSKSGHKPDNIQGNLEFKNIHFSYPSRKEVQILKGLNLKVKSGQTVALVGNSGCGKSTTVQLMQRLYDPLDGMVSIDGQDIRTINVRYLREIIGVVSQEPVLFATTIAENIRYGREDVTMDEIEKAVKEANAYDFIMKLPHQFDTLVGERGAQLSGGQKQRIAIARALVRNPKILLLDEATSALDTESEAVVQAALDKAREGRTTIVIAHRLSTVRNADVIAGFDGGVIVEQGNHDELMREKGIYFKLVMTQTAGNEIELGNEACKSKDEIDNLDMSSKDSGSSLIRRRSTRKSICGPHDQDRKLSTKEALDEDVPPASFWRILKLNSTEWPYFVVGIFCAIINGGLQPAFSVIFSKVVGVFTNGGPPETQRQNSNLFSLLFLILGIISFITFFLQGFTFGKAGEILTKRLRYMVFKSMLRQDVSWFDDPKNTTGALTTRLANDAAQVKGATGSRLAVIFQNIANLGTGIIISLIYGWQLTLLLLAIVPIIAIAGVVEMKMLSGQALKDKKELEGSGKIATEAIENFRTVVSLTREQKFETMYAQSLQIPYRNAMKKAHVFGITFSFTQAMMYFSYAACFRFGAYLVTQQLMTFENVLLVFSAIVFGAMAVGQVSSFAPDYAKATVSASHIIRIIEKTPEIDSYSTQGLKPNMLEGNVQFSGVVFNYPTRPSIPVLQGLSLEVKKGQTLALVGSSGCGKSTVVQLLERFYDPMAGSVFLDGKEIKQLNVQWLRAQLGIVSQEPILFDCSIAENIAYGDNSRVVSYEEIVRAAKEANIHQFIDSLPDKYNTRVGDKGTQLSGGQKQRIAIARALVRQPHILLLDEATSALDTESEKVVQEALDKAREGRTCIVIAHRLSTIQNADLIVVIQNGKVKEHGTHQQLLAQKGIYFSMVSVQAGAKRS
Nature of the series: Potential for drug-drug interactions through P-gp in vivo (Kp with or without cyclosporin A). The settings on record: mice, with versus without cyclosporin A (20 mg/kg). Here is the method:
as §1
(§2) To examine the potential for drug-drug interactions through P-gp in vivo, the Kp values of compounds of the present invention with (KpCSA) or without (KpCont.) cyclosporin A (20 mg/kg), a P-gp inhibitor, were calculated. The KpCSA value of Compound (I-72) was 1.14, and the calculated KpCSA/KpCont. ratio was 0.9.
(§3) On the other hand the potential for drug-drug interactions through P-pg of amide compound B which has similar structure of Compound (I-72) was also examined in mice. The KpCont. and KpCSA were 0.04 and 0.84, respectively.

Series [3] relates to T3, P-gp.
T3 construct: effectively excreted through P-gp from the brain to vessels; from tissue; host or cells: brain / blood-brain barrier of living Jcl;C57BL/6J mice
Described as above. The conditions noted are these: male, Jcl;C57BL/6J, mouse, brain (relative to plasma); mice, intravenous administration, with cyclosporin A (20 mg/kg), a P-gp inhibitor; read-out: KpCSA value. As for the experimental part: as §1, §2, §3

pIC50: −log10 of the molar value.

Usually pIC50 stands for the negative decadic logarithm of the IC50, by convention in mol/L. As a reminder, the melting point is the temperature, or range, at which the solid turns liquid.

The compound `CC1CC(C)CN(c2cccc(NC[C@H]3CC[C@H](NS(=O)(=O)C(C)(C)C)CC3)c2)C1` (stereo partly drawn) [Ii-1] showed a pIC50 at human NPY Y5 receptor of 10.00.

`CCS(=O)(=O)N[C@H]1CC[C@H](CNc2cc(-c3ccccc3)on2)CC1` [Ii-44] had a pIC50 at human NPY Y5 receptor of 8.47.

On human NPY Y5 receptor, `CC(C)S(=O)(=O)NC[C@H]1CC[C@H](Nc2ccc(C(F)(F)F)cn2)CC1` [Ij-1] gave a pIC50 of 9.15.

As for `CC(C)(C)S(=O)(=O)NC[C@H]1CC[C@H](Nc2nc3ccc(C(F)(F)F)cc3s2)CC1` [Ij-66], the pIC50 at human NPY Y5 receptor is 9.41.

`C[C@@H]1CN(c2ccc(NC[C@H]3CC[C@H](NS(=O)(=O)C(C)(C)C)CC3)cc2)C[C@H](C)O1` [Compound I-72] came in with a melting point of 147 to 149 °C. Besides, the Kp in series [1] was 1.29. Besides, on P-gp [2], the KpCSA/KpCont. ratio is listed as 0.9. In the series with P-gp [3], the Kp was determined as 1.14.

On to `CCS(=O)(=O)N[C@H]1CC[C@H](CNc2ccc(S(=O)(=O)c3ccc(F)cc3)cc2)CC1` [Ii-34], for which, at human NPY Y5 receptor, the negative-log IC50 (pIC50) was 7.96.

For `C[C@@H]1CN(c2ccc(NC(=O)[C@H]3CC[C@H](NS(=O)(=O)C(C)(C)C)CC3)cc2)C[C@H](C)O1` [compound B, reference compound], the results for the Kp (in series [1]; with P-gp [3]) were 0.04 and 0.84, respectively. Also, the KpCSA/KpCont. ratio at P-gp [2] came out at 20.5.

As to `CC(C)S(=O)(=O)NC[C@H]1CC[C@H](Nc2ccc(OC3CCCC3)nn2)CC1` [Ij-52], the negative-log IC50 (pIC50) at human NPY Y5 receptor is 9.57.

In turn, `CC(C)(C)S(=O)(=O)NC[C@H]1CC[C@H](Nc2ccc3ccccc3n2)CC1` [Ij-59] showed a pIC50 at human NPY Y5 receptor of 8.60.

In turn, `CCCn1c(=O)oc2cc(NC[C@H]3CC[C@H](NS(=O)(=O)CC)CC3)ccc21` [Ii-16] showed a pIC50 on human NPY Y5 receptor of 8.60.

The record behind these values is patent publication US20100063027A1, “Amine Derivative Having NPY Y5 Receptor Antagonistic Activity” (SHIONOGI & CO., LTD., priority 2006, published 2010).
